Assay results from ChEMBL document CHEMBL5338739, “Discovery of Dual Lysine Methyltransferase G9a and EZH2 Inhibitors with In Vivo Efficacy against Malignant Rhabdoid Tumor” (J Med Chem, 2023).
Active and inactive are the calls of the source. No cut-off for these calls is given here.

How the values were obtained:
RD [1] = assay: Downregulation of H3K79me2 expression in human RD cells at 5 uM incubated for 6 days by immunoblotting analysis; format: functional, cell-based; conditions: time 6.0 day
Mus musculus = assay: Downregulation of H3K27me3 expression in tumor tissue of BALB/c nude mouse xenografted with human RD cells at 20 mg/kg, ip administered for 5 consecutive days followed by 2 rest days for 3 weeks by Western blotting analysis; format: functional, organism-based
RD [2] = assay: Antiproliferative activity against human RD cells assessed as reduction in clone formation rate at 5 uM for 1 to 2 weeks with fresh medium replacement for every 2 to 3 days by crystal violet staining based microscopic analysis; format: functional, cell-based; conditions: time 1-2 weeks
RD [3] = assay: Cytotoxicity against human RD cells assessed as reduction in cell viability incubated for 72 hrs by MTT assay; format: functional
[4] = Toxicity in BALB/c nude mouse xenografted with human RD cells assessed as effect on lung viscera index at 10 to 20 mg/kg, ip administered for 5 consecutive days followed by 2 rest days for 3 weeks; format: organism-based; conditions: in vivo, 504 h, dose 10-20 mg/kg
[5] = Tmax in Sprague-Dawley rat at 10 mg/kg, iv administered for 12 hrs by HPLC analysis; format: ADME, organism-based; conditions: in vivo
[6] = target: T1, Histone-lysine N-methyltransferase EZH1 (Homo sapiens) (UniProt Q92800); assay: Inhibition of human EZH1 using SAM as substrate at 10 uM by time-resolved fluorescence assay relative to control
T1 sequence (whole entry): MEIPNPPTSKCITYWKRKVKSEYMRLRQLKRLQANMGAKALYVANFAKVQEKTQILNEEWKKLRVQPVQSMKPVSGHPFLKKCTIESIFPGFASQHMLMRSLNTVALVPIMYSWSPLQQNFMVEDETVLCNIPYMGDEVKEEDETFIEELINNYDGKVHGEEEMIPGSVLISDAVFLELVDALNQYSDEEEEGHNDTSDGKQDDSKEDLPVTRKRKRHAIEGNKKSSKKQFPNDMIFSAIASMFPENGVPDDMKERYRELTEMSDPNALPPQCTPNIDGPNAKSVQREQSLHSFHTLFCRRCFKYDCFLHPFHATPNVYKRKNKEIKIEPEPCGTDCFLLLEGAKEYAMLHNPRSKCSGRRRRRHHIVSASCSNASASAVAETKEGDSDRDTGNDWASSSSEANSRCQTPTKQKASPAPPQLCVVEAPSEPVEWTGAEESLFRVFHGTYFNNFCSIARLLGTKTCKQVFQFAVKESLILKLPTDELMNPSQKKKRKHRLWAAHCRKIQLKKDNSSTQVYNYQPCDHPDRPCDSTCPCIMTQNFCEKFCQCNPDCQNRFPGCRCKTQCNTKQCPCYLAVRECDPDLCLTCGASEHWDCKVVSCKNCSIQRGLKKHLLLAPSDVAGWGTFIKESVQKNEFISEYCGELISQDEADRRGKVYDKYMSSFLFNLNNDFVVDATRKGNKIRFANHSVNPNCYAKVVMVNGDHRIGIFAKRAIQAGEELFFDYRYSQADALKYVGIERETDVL

[7] = target: T2, Histone-lysine N-methyltransferase EHMT2 (Homo sapiens) (UniProt Q96KQ7); assay: Inhibition of human recombinant EHMT2 G9a using SAM as substrate at 10 uM by time-resolved fluorescence assay relative to control
T2 sequence (whole entry): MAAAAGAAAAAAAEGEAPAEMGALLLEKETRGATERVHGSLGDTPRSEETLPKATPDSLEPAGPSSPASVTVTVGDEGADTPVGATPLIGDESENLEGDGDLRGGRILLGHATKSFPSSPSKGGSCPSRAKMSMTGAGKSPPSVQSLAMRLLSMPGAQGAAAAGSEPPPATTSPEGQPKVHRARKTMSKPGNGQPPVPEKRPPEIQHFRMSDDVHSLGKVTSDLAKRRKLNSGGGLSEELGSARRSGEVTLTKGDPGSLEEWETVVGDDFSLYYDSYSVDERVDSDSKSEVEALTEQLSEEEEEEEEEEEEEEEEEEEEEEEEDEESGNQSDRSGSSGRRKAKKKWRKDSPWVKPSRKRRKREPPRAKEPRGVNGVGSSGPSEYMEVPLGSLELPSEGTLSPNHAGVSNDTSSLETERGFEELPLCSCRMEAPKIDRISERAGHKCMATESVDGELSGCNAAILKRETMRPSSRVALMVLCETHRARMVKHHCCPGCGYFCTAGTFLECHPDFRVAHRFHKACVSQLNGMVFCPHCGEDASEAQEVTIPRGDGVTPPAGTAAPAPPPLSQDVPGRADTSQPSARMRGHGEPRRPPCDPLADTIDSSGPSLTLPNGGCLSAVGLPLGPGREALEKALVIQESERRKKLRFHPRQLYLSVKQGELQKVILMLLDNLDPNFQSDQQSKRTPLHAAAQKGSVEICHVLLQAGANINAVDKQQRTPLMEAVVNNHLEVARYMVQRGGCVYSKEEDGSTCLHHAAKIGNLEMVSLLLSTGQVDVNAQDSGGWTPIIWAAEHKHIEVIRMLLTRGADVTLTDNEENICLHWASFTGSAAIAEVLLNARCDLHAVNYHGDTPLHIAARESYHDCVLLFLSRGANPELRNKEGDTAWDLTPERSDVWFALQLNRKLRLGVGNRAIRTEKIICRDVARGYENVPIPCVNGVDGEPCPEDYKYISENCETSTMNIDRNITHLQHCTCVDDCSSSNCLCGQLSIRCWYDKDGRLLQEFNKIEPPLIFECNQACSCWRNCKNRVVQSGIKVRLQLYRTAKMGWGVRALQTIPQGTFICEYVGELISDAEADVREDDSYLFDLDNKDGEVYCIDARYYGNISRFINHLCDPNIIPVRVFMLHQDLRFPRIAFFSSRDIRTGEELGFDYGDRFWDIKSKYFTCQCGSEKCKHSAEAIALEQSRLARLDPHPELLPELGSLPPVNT

[8] = target: Histone-lysine N-methyltransferase EZH2 (Homo sapiens, UniProt Q15910); assay: Binding affinity to EZH2 in human RD cells assessed as decrease in pronase E mediated EZH2 hydrolyzation incubated for 1 hr by DARTS analysis; format: cell-based; conditions: dose 5-20 µM
[9] = target: Histone-lysine N-methyltransferase, H3 lysine-79 specific (Homo sapiens) (UniProt Q8TEK3); assay: Inhibition of […] (unknown origin) using SAM as substrate at 10 uM by time-resolved fluorescence assay relative to control
[10] = Toxicity in BALB/c nude mouse xenografted with human RD cells assessed as mortality at 10 to 20 mg/kg, ip administered for 5 consecutive days followed by 2 rest days for 3 weeks; format: organism-based; conditions: in vivo, 504 h, dose 10-20 mg/kg
[11] = Toxicity in BALB/c nude mouse xenografted with human RD cells assessed as effect on heart viscera index at 10 to 20 mg/kg, ip administered for 5 consecutive days followed by 2 rest days for 3 weeks; format: organism-based; conditions: in vivo, 504 h, dose 10-20 mg/kg
[12] = target: Histone-lysine N-methyltransferase, H3 lysine-79 specific (Homo sapiens) (UniProt Q8TEK3); assay: Binding affinity to DOT1L in human RD cells assessed as increase in protein thermal stability at 5 uM incubated for 4 hrs by CETSA based Western blot analysis; format: cell-based

Chain of Histone-lysine N-methyltransferase, H3 lysine-79 specific (Homo sapiens) (Q8TEK3 whole entry, looked up): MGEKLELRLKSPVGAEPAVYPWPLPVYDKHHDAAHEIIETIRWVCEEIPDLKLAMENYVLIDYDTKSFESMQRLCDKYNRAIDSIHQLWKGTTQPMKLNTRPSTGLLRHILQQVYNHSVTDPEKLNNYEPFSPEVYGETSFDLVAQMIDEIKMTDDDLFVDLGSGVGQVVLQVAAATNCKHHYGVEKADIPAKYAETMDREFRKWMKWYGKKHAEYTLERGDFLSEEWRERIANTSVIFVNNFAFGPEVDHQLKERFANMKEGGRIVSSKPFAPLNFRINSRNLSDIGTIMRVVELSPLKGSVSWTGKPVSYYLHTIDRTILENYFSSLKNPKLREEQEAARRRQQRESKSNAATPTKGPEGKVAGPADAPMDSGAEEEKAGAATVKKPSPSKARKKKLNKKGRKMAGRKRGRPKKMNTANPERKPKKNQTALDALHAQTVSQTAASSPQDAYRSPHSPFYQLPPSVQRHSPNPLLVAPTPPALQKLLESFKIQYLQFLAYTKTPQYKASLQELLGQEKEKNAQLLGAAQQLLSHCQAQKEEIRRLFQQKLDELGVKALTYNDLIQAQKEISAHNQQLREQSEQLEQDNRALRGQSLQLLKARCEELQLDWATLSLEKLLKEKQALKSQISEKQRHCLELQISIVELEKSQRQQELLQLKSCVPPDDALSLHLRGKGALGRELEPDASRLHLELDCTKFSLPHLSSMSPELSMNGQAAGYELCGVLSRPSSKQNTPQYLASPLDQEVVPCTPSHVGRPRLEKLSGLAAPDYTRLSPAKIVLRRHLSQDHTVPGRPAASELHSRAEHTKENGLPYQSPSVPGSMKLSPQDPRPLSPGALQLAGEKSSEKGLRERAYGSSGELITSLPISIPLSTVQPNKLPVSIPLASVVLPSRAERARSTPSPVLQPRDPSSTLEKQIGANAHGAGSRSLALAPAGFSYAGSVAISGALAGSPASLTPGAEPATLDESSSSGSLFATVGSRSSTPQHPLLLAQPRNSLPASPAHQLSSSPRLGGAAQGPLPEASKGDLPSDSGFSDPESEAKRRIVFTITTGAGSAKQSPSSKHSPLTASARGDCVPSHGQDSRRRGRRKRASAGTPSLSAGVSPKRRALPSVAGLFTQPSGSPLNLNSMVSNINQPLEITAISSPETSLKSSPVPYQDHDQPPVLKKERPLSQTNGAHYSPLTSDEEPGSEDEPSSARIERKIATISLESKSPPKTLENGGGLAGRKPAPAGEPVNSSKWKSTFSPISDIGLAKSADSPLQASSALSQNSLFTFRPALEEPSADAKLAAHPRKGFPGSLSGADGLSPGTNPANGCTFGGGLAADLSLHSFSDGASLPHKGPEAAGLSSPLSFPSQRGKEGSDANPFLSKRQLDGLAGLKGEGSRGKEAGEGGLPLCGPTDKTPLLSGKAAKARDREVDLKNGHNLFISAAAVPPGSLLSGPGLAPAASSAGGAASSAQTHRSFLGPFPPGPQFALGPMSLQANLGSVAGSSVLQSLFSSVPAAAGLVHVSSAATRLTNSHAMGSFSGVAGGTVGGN
Chain of Histone-lysine N-methyltransferase EZH2 (Q15910 whole entry, looked up): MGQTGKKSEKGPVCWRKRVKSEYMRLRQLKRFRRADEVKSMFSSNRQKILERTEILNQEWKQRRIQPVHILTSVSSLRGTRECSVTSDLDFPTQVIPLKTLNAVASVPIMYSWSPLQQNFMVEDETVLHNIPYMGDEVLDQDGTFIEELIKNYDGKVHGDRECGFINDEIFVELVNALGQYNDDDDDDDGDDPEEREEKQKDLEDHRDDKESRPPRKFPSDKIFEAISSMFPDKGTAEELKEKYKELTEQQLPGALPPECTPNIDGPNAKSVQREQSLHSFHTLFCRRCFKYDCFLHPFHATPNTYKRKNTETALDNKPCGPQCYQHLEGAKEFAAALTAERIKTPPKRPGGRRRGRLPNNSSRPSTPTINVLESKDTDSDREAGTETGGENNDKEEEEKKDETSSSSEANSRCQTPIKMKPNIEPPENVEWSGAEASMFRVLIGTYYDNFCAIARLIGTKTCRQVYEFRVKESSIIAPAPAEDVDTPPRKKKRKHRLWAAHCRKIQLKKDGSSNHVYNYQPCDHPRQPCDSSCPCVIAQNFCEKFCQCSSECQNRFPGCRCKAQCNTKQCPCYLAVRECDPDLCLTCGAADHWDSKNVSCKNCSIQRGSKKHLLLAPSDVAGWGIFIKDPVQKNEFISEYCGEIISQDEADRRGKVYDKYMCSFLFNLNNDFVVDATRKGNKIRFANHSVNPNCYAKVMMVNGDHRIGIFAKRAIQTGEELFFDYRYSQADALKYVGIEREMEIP

For `COc1cc2c(NCc3c(C)cc(C)[nH]c3=O)nc(N3CCC(F)(F)CC3)nc2cc1OCCCN1CCCC1`, the Activity (RD [1]) was “inactive”, the Activity (Mus musculus) was “Active” and the Activity (RD [2]) was “Active”. The CC50 (RD [3]) was 19.6 µM, the Activity [4] was “Non-Toxic” and the Tmax [5] was 10.2 min. The inhibition [6] was 89.2%, the inhibition [7] was 99.1% and the Activity [8] was “Dose-Dependent Effect”. The inhibition [9] was -5.87%, the Activity [10] was “Non-Toxic” and the Activity [11] was “Non-Toxic”. For the same compound, the Activity [12] was “inactive”.
